{"source": "paper PMC8689140", "about": "(Frontiers in Pharmacology, 2021)", "key": {"rat brain VMAT2": {"molecular_target": "T1, rat brain VMAT2 (Rattus norvegicus, UniProt Q01827)", "T1 construct": "the whole rat brain (excluding the cerebellum) or striatal were homogenized; tissue Eurofins Panlabs (assay performed by); host or cells: rat brain (without cerebellum) or striatum, synaptic vesicle suspension", "T1 sequence (Q01827 whole entry)": "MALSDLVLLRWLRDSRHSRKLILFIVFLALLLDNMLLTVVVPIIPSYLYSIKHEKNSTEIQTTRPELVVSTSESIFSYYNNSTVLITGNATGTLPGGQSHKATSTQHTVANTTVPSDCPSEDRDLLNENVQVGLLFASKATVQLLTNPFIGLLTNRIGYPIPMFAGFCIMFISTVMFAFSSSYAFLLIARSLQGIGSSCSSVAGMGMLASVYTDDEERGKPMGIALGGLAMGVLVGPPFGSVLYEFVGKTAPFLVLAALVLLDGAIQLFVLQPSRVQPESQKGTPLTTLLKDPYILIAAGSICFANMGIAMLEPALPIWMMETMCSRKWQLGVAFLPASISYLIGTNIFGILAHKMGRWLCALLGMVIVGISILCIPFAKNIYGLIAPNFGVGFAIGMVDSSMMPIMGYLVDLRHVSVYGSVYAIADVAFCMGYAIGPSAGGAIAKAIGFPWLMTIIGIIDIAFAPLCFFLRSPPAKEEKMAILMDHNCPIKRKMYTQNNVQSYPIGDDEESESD", "experiment": "VMAT2 binding assay (inhibition of [3H]HTBZ binding)", "details": "ratio of Ki vs HTBZ", "quoted_text": "In brief, the whole rat brain (excluding the cerebellum) or striatal were homogenized in 20 ml of ice-cold sucrose solution (0.32 M). […] The samples were centrifuged at 20,000 g at 4°C for 20 min, then 20 ml of MgSO4 solution (1 mM) was added to the supernatant.\nA 96-well plate was used for the assay in duplicate. […] Samples were preincubated for 30 min at room temperature. […] All reactions were terminated using vacuum filtration over a GF/B glass fiber filter pretreated with 0.5% BSA. […] Radioactivity retained on the filters was determined by liquid scintillation counter. […] IC50 values were determined by a nonlinear least-squares regression analysis and Ki was calculated."}, "[1]": {"experiment": "PK in dogs after single oral or intravenous dose", "assay_type": "in vivo, dog", "experimental": "Male beagle dogs were randomly divided into four groups. […] The dogs were fasted for 12 h before treatment and 4 h after treatment, but they were granted free access to water. Blood was collected from the vein before administration and 0.083 (only for injection groups), 0.25, 0.5, 1, 2, 3, 4, 6, 8, 12 and 24 h, and placed it in heparinized tubes, and centrifuged it at 8,000 rpm for 10 min at 4°C to separate the plasma, which we stored at −20 °C until analysis. The plasma samples were pretreated by protein precipitation with acetonitrile and quantitated by the validated LC-MS/MS (Shimadzu Exion-Triple Quad 4500) method.\nThe system consisted of an Exion UHPLC system (Shimadzu, Japan) and a Triple Quad 4500 mass spectrometer (AB Sciex, United States) with an electrospray ionization source. Multiple reaction monitoring in the positive ionization mode was applied to measure analytes. Chromatographic separation was performed on a Acquity BEH C18 column (50 × 2.1 mm i. d., 1.7 μm, Waters, United States). The mobile phase was composed of 0.1% FA in water (A) and 0.1% FA in acetonitrile (B), and the flow rate was 0.4 ml/min. The elution conditions were the following linear gradient: 0–0.4 min: 90% A, 0.4–0.6 min: 60% A, 0.6–1.2 min: 10% A, 1.2–2.2 min: 10% A, 2.2–2.3 min: 90% A, 2.3–3.0 min: 90% A. The optimized parameters were as follows: the spray voltage 5.5 kV, source temperature 550 °C, pressure of source gas 1 and gas 2: 55psi, pressure of curtain gas: 30psi, and the DP, EP and CE voltage was 30,6 and 40 eV, respectively."}}}
{"smiles": "COc1cc2c(cc1OCC(F)(F)F)CCN1CC(CC(C)C)C(O)CC21", "note": "(single isomer, unassigned; (+)) [(+)-13e, (+)-9-(2,2,2-trifluoroethoxy)-α-dihydrotetrabenazine]", "values": [{"measurement": "affinity for VMAT2 stronger than that of HTBZ", "setting": "rat brain VMAT2", "value": "~3", "unit": "fold"}, {"measurement": "V, V/F", "setting": "[1]; dog, single intravenous dose 0.6 μmol/kg", "value": "5.4 ± 1.1", "unit": "L/kg"}, {"measurement": "clearance", "setting": "[1]; dog, single intravenous dose 0.6 μmol/kg, read-out: Cl, Cl/F (converted)", "value": 23.3, "unit": "mL/min/kg"}, {"measurement": "V, V/F", "setting": "[1]; dog, single oral dose 3 μmol/kg", "value": "18.8 ± 9.2", "unit": "L/kg"}, {"measurement": "Cmax smaller than that of VBZ", "setting": "[1]; dogs, oral administration at an equivalent dose", "value": 2.9, "unit": "fold"}, {"measurement": "Cmax larger than that of HTBZ", "setting": "[1]; dogs, oral administration at an equivalent dose (HTBZ from VBZ)", "value": 7.7, "unit": "fold"}, {"measurement": "bioavailability", "setting": "[1]; male, beagle, dog, plasma, dogs, oral 3 μmol/kg vs intravenous 0.6 μmol/kg, read-out: absolute oral bioavailability", "value": 75.9, "unit": "%"}, {"measurement": "CL/F", "setting": "[1]; male, beagle, plasma, 3 umol/kg, dog, single oral dose 3 μmol/kg", "value": 31.7, "unit": "mL/min/kg"}]}
